# Where “and” joins values, the source holds several entries; their conditions need not be identical. Equal entries are not always repeated. Where two headings read alike, the source gives them in different places.
# Tests used:
# [1] = test system: ΔMGMT transduced hematopoietic CD34+ progenitor cells; assay: Drug resistance: CFU survival after BG plus TMZ or BCNU, ΔMGMT transduced cells; assay type: cell-based, human; conditions: for IC50 / IC90: Homo sapiens, 10 μM BG 1 hour, then drug 2 hours
# Source text: CD34+ cells were transduced with MFG-ΔMGMT high titer retroviral supernatant obtained as described in Reese et al. 1996. ΔMGMT encodes a mutant form of O-^6 alkylguanine DNA alkyltransferase (ΔAGT) and contains a point mutation which renders the protein resistant to the inhibitor O^6-benzylguanine (BG). CD34+ cells transduced with ΔMGMT are resistant to the drug combinations BG and 1,3bis(2-chloroethly)-1-nitrosourea (BCNU) (Reese et al. 1996) and BG and temozolomide (TMZ) (Reese et al. 1998). The CD34+ cells were transduced as follows: pMFG-wtMGMT or pMFG-ΔMGMT and pSV2neo DNA were cotransfected into the packaging line GP+E86, followed by viral supernatant infection of the amphotropic cell line GP+envAm12 (Markowitz, D. et al. 1988) (Arthur Bank, Columbia University). To increase titer, a supernatant “ping-pong” method was used (Bodine et al. 1990).
# (§1) Drug resistance conferred by ΔMGMT To evaluate drug resistance conferred by ΔMGMT, primary CFU survival at the TMZ or BCNU IC50 and IC90 in transduced or untransduced cells was compared. IC50 (or IC90) is the determination of CFU survival after exposure to TMZ or BCNU in the presence of the AGT inhibitor BG. Following a retroviral transduction period of 72-96 hours, hematopoietic CD34+ progenitor cells were pretreated for 1 hour with 10 μM BG followed by increasing concentrations of TMZ or BCNU for 2 hours. Cells were washed free of drug, plated in methylcellulose and 5 μM BG was added to maintain depletion of endogenous AGT. After culture in methylcellulose, the colonies formed were counted as either CFU-GM, BFU-E and CFU-GEMM (referred to as CFU). Individual CFU were collected from 10 independent experiments, each from a different donor.
# [2] = test system: untransduced hematopoietic CD34+ progenitor cells; assay: Drug resistance: CFU survival after BG plus TMZ or BCNU, untransduced cells; assay type: cell-based; conditions: Homo sapiens, 10 μM BG 1 hour, then drug 2 hours
# Protocol: as §1
structure (smiles),measurement,setting,value
"O=NN(CCCl)C(=O)NCCCl [BCNU, 1,3bis(2-chloroethly)-1-nitrosourea]",increase in the IC90 after exposure to BG,[1]; Dexter,2.5 fold
same,average increase in the IC50 after exposure to BG,[1]; Dexter (n=2),5.6 fold
same,average fold increase in the IC50 after exposure to BG,"[1]; FN (TMZ n=2, BCNU n=1)",2.8 fold
same,increase in the IC90 after exposure to BG,"[1]; FN (TMZ n=2, BCNU n=1)",> 10 fold
same,average increase in the IC50 after exposure to BG,[1]; allo MSC (n=1),2 fold
same,increase in the IC90 after exposure to BG,[1]; allo MSC (n=1),> 6 fold
same,fold increase in ΔMGMT/untransduced CFU IC50,[1]; stroma Allo MSC,5.6 fold
same,fold increase in ΔMGMT/untransduced CFU IC90,[1]; stroma Allo MSC,>6 fold
same,fold increase in ΔMGMT/untransduced CFU IC90,[1]; stroma Dexter,2.5 fold
same,fold increase in ΔMGMT/untransduced CFU IC50,[1]; stroma FN,2.8 fold
"Cn1nnc2c(C(N)=O)ncn2c1=O [TMZ, temozolomide]",IC50,[2]; stroma Allo MSC,25.5 µM
same,IC90,[2]; stroma Allo MSC,48 µM
same,IC90,[2]; stroma FN,29 µM
same,IC50,[2]; stroma auto MSC,9.8 µM
same,IC90,[2]; stroma auto MSC,29 µM
same,average fold increase in the IC50 after exposure to BG,"[1]; FN (TMZ n=2, BCNU n=1)",7.7 fold
same,increase in the IC90 after exposure to BG,"[1]; FN (TMZ n=2, BCNU n=1)",> 8.2 fold
same,IC50,"[1]; read-out: CFU IC50 ΔMGMT, stroma Allo MSC",71 µM
same,IC50,"[1]; read-out: CFU IC50 ΔMGMT, stroma FN",123 µM
same,IC50,"[1]; read-out: CFU IC50 ΔMGMT, stroma auto MSC",64 µM
same,IC90,"[1]; read-out: CFU IC90 ΔMGMT, stroma Allo MSC",> 300 µM
same,IC90,"[1]; read-out: CFU IC90 ΔMGMT, stroma FN",> 300 µM
same,IC90,"[1]; read-out: CFU IC90 ΔMGMT, stroma auto MSC",> 300 µM
same,average fold increase in the IC50 after exposure to BG,[1]; allo MSC and auto MSC (n=4),5.2 fold
same,increase in the IC90 after exposure to BG,[1]; allo MSC and auto MSC (n=4),> 9.8 fold
same,fold increase in ΔMGMT/untransduced CFU IC50,[1]; stroma Allo MSC,2.8 fold and 2.4 fold
same,fold increase in ΔMGMT/untransduced CFU IC90,[1]; stroma Allo MSC,>6 fold and >5.3 fold
same,fold increase in ΔMGMT/untransduced CFU IC90,[1]; stroma FN,>10.3 fold and >6 fold
same,fold increase in ΔMGMT/untransduced CFU IC50,[1]; stroma auto MSC,6.5 fold and 8.9 fold
same,fold increase in ΔMGMT/untransduced CFU IC90,[1]; stroma auto MSC,>10.3 fold and 17.7 fold
